Test systems include SF-539; U-251; ACHN; HT-29; HL-60; SNB-19; 786-0; OVCAR-4; CAKI-1; OVCAR-8; COLO 205; SR; NCI-H522; KM12; TK-10; SW-620; DU-145; SNB-75; SK-OV-3; OVCAR-5.
Assay in all cases: inhibition of tumour cell growth, NCI panel, 48 h

SMILES strings stand for the structures.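 Cultured in 96-well plates, cells were exposed to test compound for 48 hours across five concentrations. Abbreviation: GI50, concentration required for 50% inhibition of growth.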 Activity calls are given as the source filed them. Rule as the data show it: active = GI50 up to about 1.1 µM and inactive = higher. Bounds are passed on as bounds.

Experimental findings from ChEMBL document CHEMBL1201862, “PubChem BioAssay data set” (2004) are described below.

Turning to `O=C(O)CN1CCN2CCCCCN(CC1)CCN(CC(=O)O)CC2`, the GI50 with SF-539 was > 100 µM (inactive); in the experiment on U-251, > 100 µM (inactive); in the experiment on ACHN, > 100 µM (inactive); in the experiment with HT-29, 31.2 µM (inactive); in the experiment on HL-60, 5.26 µM (inactive); in the experiment with SNB-19, > 100 µM (inactive). The GI50 was > 100 µM (inactive) with 786-0; > 100 µM (inactive) in the experiment on OVCAR-4; > 100 µM (inactive) with CAKI-1; > 100 µM (inactive) in the experiment on OVCAR-8; > 100 µM (inactive) with COLO 205; 45.1 µM (inactive) with SR. The GI50 in the experiment with NCI-H522 was 53.3 µM (inactive); in the experiment with KM12, 84.7 µM (inactive); in the experiment on TK-10 it was > 100 µM (inactive); in the experiment with SW-620 it was 83.9 µM (inactive); in the experiment on DU-145 it was > 100 µM (inactive); with SNB-75 it was 11.4 µM (inactive). For the same molecule, the GI50 in the experiment on SK-OV-3 and in the experiment on OVCAR-5 was > 100 µM (inactive) each time.

With `CCCCN(CCCC)C1(c2cc3ccccc3s2)CCCCC1.[O-][Cl+3]([O-])([O-])O`, the GI50 with SF-539 was 19.1 µM (inactive); with U-251 it was 17.3 µM (inactive); in the experiment on ACHN, 16.6 µM (inactive); in the experiment with HT-29 it was 13.1 µM (inactive); in the experiment with HL-60, 17.7 µM (inactive); in the experiment on SNB-19, 18.7 µM (inactive). The GI50 is 13.7 µM (inactive) in the experiment with 786-0; 15.4 µM (inactive) in the experiment on OVCAR-4; 18.7 µM (inactive) in the experiment with CAKI-1; 18.7 µM (inactive) in the experiment with OVCAR-8; 14.9 µM (inactive) with COLO 205; 16.3 µM (inactive) in the experiment with SR. In addition, the GI50 with NCI-H522 is 12.6 µM (inactive); in the experiment with KM12, 16 µM (inactive); with TK-10, 17.3 µM (inactive); in the experiment on SW-620 it was 15 µM (inactive); in the experiment on DU-145, 16.3 µM (inactive); with SNB-75 it was 16.8 µM (inactive). For the same molecule, the GI50 was 20.4 µM (inactive) with SK-OV-3 and 18.4 µM (inactive) with OVCAR-5.

Take `N#CC1=C(N)N(/N=C/c2ccco2)C(c2ccco2)C1(C#N)C#N` (stereo not given): the GI50 in the experiment on SF-539 was 22.1 µM (inactive); with U-251, 18.9 µM (inactive); with ACHN it was 15.6 µM (inactive); with HT-29, 14.2 µM (inactive); in the experiment on HL-60, 3.35 µM (inactive); with SNB-19, 20.4 µM (inactive). The GI50 with 786-0 was 17.2 µM (inactive); in the experiment on OVCAR-4, 15.4 µM (inactive); with CAKI-1, 15.2 µM (inactive); in the experiment with OVCAR-8 it was 19.7 µM (inactive); with COLO 205, 14.2 µM (inactive); in the experiment on SR it was 16 µM (inactive). Besides, the GI50 in the experiment on NCI-H522 is 15.3 µM (inactive); in the experiment with KM12, 15.1 µM (inactive); in the experiment with TK-10, 17.4 µM (inactive); with SW-620, 11.2 µM (inactive); in the experiment with DU-145, 17.7 µM (inactive); in the experiment with SNB-75 it was 16.8 µM (inactive). The GI50 is 33.7 µM (inactive) in the experiment with SK-OV-3 and 20.3 µM (inactive) in the experiment on OVCAR-5.

Consider `COC(=O)C1(NC(=O)C(N)CC(=O)O)C(C)C1C` (stereo not given), for which the GI50 with SF-539, in the experiment with U-251, in the experiment with ACHN, in the experiment on HT-29, in the experiment with HL-60 and with SNB-19 was > 100 µM (inactive) throughout. In addition, the GI50 in the experiment on 786-0, in the experiment on OVCAR-4, in the experiment on CAKI-1, in the experiment with OVCAR-8, in the experiment with COLO 205 and with SR was > 100 µM (inactive) in each case. The GI50 with NCI-H522, with KM12, in the experiment on TK-10, in the experiment on SW-620, in the experiment on DU-145 and with SNB-75 was > 100 µM (inactive) throughout. In addition, the GI50 in the experiment on SK-OV-3 and with OVCAR-5 was > 100 µM (inactive) in each case.

As for `CN(/N=C/c1ccc(Cl)cc1)C1=NCCCCN1`, the GI50 with SF-539 is > 100 µM (inactive); in the experiment with U-251, > 100 µM (inactive); in the experiment on ACHN it was > 100 µM (inactive); in the experiment with HT-29 it was 66.2 µM (inactive); in the experiment with HL-60, 30.3 µM (inactive); in the experiment on SNB-19, > 100 µM (inactive). The GI50 with 786-0 was 99.8 µM (inactive); in the experiment on OVCAR-4 it was > 100 µM (inactive); in the experiment on CAKI-1 it was > 100 µM (inactive); with OVCAR-8, > 100 µM (inactive); in the experiment on COLO 205 it was 35.1 µM (inactive); with SR, > 100 µM (inactive). In addition, the GI50 in the experiment on NCI-H522 is 39.4 µM (inactive); in the experiment with KM12, 50.5 µM (inactive); in the experiment with TK-10, > 100 µM (inactive); in the experiment on SW-620, > 100 µM (inactive); with DU-145, > 100 µM (inactive); with SNB-75, 68.7 µM (inactive). Also, the GI50 in the experiment on SK-OV-3 and with OVCAR-5 was > 100 µM (inactive) throughout.

For `NCC(O)CNC(=O)c1ccc(-c2ccc(-c3ccc(C(=O)NCC(O)CN)cc3)o2)cc1` (stereo not given), the GI50 with SF-539 was 19.1 µM (inactive); in the experiment with U-251 it was 21.5 µM (inactive); in the experiment on ACHN, 45.9 µM (inactive); in the experiment on HT-29, > 100 µM (inactive); in the experiment on HL-60, > 100 µM (inactive); in the experiment on SNB-19 it was 22 µM (inactive). Further, the GI50 was 23.3 µM (inactive) in the experiment on 786-0; 36.5 µM (inactive) in the experiment on OVCAR-4; 81.7 µM (inactive) in the experiment on CAKI-1; 29.6 µM (inactive) in the experiment on OVCAR-8; 81.8 µM (inactive) with COLO 205; 67.5 µM (inactive) in the experiment on SR. The GI50 with NCI-H522 is 33.3 µM (inactive); in the experiment with KM12 it was 51.2 µM (inactive); with TK-10, 18 µM (inactive); with SW-620, > 100 µM (inactive); in the experiment with DU-145 it was 22 µM (inactive); with SNB-75 it was 25.8 µM (inactive). Also, the results for the GI50 with SK-OV-3 and with OVCAR-5 were 23.9 µM (inactive) and > 100 µM (inactive), respectively.

Take `CC(C)C(Br)CC/C(CBr)=C(\Cl)CCl` (stereo not given): the GI50 in the experiment with SF-539 is 3.59 µM (inactive); in the experiment on U-251 it was 6.25 µM (inactive); in the experiment on ACHN, 15 µM (inactive); in the experiment with HT-29 it was 2.07 µM (inactive); in the experiment on HL-60, 0.585 µM (active); in the experiment on SNB-19 it was 16.9 µM (inactive). For the same molecule, the GI50 was 1.81 µM (inactive) in the experiment with 786-0; 2.5 µM (inactive) with OVCAR-4; 4.98 µM (inactive) with CAKI-1; 3.1 µM (inactive) in the experiment on OVCAR-8; 3.4 µM (inactive) in the experiment on COLO 205; 0.598 µM (active) in the experiment on SR. For the same molecule, the GI50 is 0.689 µM (active) with NCI-H522; 5.61 µM (inactive) with KM12; 7.93 µM (inactive) in the experiment with TK-10; 1.82 µM (inactive) in the experiment on SW-620; 12.6 µM (inactive) in the experiment on DU-145; 5.19 µM (inactive) in the experiment with SNB-75. In addition, the GI50 was 2.94 µM (inactive) with SK-OV-3 and 10.4 µM (inactive) with OVCAR-5.

Take `N#CC(NNC(=O)c1ccccc1O)c1c(O)ccc2ccccc12` (stereo not given): the GI50 with SF-539 is 4.63 µM (inactive); in the experiment with U-251 it was 3.79 µM (inactive); with ACHN, 5.04 µM (inactive); with HT-29, 20.3 µM (inactive); in the experiment with HL-60, 0.713 µM (active); in the experiment on SNB-19 it was 13.6 µM (inactive). Also, the GI50 in the experiment with 786-0 is 4.56 µM (inactive); in the experiment with OVCAR-4 it was 2.58 µM (inactive); in the experiment on CAKI-1 it was 4.18 µM (inactive); with OVCAR-8 it was 3.16 µM (inactive); in the experiment on COLO 205 it was 13.2 µM (inactive); with SR, 1.46 µM (inactive). Further, the GI50 was 4.42 µM (inactive) with NCI-H522; 4.84 µM (inactive) with KM12; 4.7 µM (inactive) with TK-10; 4.3 µM (inactive) with SW-620; 2.54 µM (inactive) in the experiment on DU-145; 7.31 µM (inactive) in the experiment on SNB-75. Besides, the figures for the GI50 with SK-OV-3 and in the experiment on OVCAR-5 were 4.68 µM (inactive) and 4.38 µM (inactive), respectively.

As for `c1ccc2c(c1)[nH]c1c3ccccc3sc21`, the GI50 was > 100 µM (inactive) in the experiment on SF-539; 89.3 µM (inactive) in the experiment on U-251; > 100 µM (inactive) in the experiment on ACHN; > 100 µM (inactive) with HT-29; > 100 µM (inactive) in the experiment on HL-60; > 100 µM (inactive) in the experiment with SNB-19. In addition, the GI50 was > 100 µM (inactive) in the experiment with 786-0; > 100 µM (inactive) in the experiment with OVCAR-4; > 100 µM (inactive) with CAKI-1; > 100 µM (inactive) in the experiment with OVCAR-8; > 100 µM (inactive) in the experiment with COLO 205; 23 µM (inactive) in the experiment on SR. For the same molecule, the GI50 was > 100 µM (inactive) with NCI-H522; > 100 µM (inactive) with KM12; > 100 µM (inactive) in the experiment on TK-10; > 100 µM (inactive) in the experiment on SW-620; > 100 µM (inactive) in the experiment with DU-145; 8.41 µM (inactive) in the experiment on SNB-75. Moreover, the GI50 in the experiment with SK-OV-3 and in the experiment on OVCAR-5 was > 100 µM (inactive) each time.

In the case of `Cc1ccc(Nc2nc(=O)c3c4ccccc4n(C(=O)OC(C)(C)C)c3s2)cc1`, the GI50 in the experiment with SF-539 was 26.6 µM (inactive); in the experiment with U-251 it was 30.1 µM (inactive); with ACHN, 35.5 µM (inactive); in the experiment with HT-29 it was 30.1 µM (inactive); in the experiment with HL-60, 24.8 µM (inactive); in the experiment on SNB-19, 79.1 µM (inactive). Further, the GI50 in the experiment on 786-0 is 15.3 µM (inactive); in the experiment with OVCAR-4 it was 37.9 µM (inactive); in the experiment on CAKI-1, 18.2 µM (inactive); with OVCAR-8, 39.7 µM (inactive); with COLO 205, 35.4 µM (inactive); in the experiment with SR it was 12.8 µM (inactive). The GI50 in the experiment on NCI-H522 was 22.5 µM (inactive); with KM12, 16.7 µM (inactive); in the experiment on TK-10 it was 37.8 µM (inactive); with SW-620, 28.4 µM (inactive); with DU-145, 33.7 µM (inactive); in the experiment with SNB-75 it was > 100 µM (inactive). The GI50 was > 100 µM (inactive) with SK-OV-3 and 19.7 µM (inactive) in the experiment with OVCAR-5.
